The values that follow come from patent publication US7592457B2 (Korea Research Institute of Chemical Technology, priority 2004, dated 2009).

In data set [1] the target is T1, hD3 receptor (Homo sapiens, UniProt P35462).
T1 construct: purchased BioSignal Packard Inc., Montreal, Canada
The data set can be described thus: Radioligand binding, dopamine D3 ([3H]spiperone). The note with it: read-out: Binding affinity (Inhibition rate % at 10 μM) D3.

Data set [2] deals with extracellular glutamate levels. To be noted: frontal cortex and dorsal hippocampus, literature; cited from earlier work.
The target of data set [3] is D1 (Homo sapiens, UniProt P21728). The data set can be described thus: Radioligand binding for selectivity, D1. To be noted: read-out: Binding affinity (Inhibition rate % at 10 μM) D1.
Chain of D1 (P21728 whole entry): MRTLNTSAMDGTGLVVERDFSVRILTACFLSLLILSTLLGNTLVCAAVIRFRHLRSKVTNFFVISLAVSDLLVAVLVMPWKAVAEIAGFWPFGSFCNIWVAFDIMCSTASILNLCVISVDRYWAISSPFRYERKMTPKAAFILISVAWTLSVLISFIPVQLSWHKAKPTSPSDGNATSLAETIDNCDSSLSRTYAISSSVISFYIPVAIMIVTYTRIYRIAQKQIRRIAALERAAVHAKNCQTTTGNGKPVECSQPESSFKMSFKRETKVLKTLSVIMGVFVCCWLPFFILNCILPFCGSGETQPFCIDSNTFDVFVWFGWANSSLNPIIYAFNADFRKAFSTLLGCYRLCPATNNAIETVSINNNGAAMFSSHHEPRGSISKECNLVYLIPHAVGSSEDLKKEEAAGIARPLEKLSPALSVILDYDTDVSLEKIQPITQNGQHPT
Data set [4] deals with T2, hD2L receptor (Homo sapiens, UniProt P14416).
T2 construct: purchased BioSignal Packard Inc., Montreal, Canada
T2 sequence (P14416 whole entry): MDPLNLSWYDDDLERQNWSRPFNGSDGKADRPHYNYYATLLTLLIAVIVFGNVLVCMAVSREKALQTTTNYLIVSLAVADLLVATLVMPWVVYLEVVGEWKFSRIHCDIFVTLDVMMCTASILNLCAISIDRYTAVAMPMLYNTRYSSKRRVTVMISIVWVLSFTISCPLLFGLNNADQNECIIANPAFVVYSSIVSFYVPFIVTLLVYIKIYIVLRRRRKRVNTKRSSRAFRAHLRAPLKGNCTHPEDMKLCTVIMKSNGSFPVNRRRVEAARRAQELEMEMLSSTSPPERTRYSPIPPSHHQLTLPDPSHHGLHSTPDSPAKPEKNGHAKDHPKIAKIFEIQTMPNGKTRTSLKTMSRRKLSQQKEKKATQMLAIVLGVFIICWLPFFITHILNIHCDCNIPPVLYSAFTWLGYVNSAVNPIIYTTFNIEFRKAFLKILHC
The data set can be described thus: Radioligand binding, dopamine D2 ([3H]spiperone). To be noted: read-out: Binding affinity (Inhibition rate % at 10 μM) D2.

For data set [5], the target named is T3, 5-HT1a (Homo sapiens, UniProt P08908).
T3 construct: purchased Euroscreen/BioSignal Packard Inc
T3 sequence (P08908 1-422): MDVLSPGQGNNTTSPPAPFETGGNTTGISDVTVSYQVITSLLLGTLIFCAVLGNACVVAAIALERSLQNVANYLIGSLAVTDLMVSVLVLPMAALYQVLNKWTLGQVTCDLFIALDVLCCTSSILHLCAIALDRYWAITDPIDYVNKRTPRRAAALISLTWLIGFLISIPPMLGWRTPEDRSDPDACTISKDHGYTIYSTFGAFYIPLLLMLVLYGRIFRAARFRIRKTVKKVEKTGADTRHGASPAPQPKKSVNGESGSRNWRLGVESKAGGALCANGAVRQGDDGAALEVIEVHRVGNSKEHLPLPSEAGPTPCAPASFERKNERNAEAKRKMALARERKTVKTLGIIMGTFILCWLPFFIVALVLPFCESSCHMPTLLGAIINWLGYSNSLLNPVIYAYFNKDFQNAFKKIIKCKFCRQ
The data set can be described thus: Radioligand binding, 5-HT1a ([3H]8-OH-DPAT). To be noted: read-out: Binding affinity (Inhibition rate % at 10 μM) 5HT1a. The protocol:
(§1) Radioligand bindings were performed according to the test method provided by the supplier of receptor membrane (Euroscreen/BioSignal Packard Inc.).

For data set [6], the system named is rats. To be noted: water maze, literature; cited from earlier work.
Data set [7] concerns rat maximal electroseizure threshold. The note with it: literature; cited from earlier work.
Data set [8] addresses T4, 5-HT7 (Homo sapiens, UniProt P34969).
T4 construct: purchased Euroscreen/BioSignal Packard Inc
The data set can be described thus: Radioligand binding, 5-HT7 ([3H]LSD). The note with it: 10 μM. The protocol:
as §1

In data set [9] the target is T5, 5-HT2a (Homo sapiens, UniProt P28223).
T5 construct: purchased Euroscreen/BioSignal Packard Inc
T5 sequence (P28223 whole entry): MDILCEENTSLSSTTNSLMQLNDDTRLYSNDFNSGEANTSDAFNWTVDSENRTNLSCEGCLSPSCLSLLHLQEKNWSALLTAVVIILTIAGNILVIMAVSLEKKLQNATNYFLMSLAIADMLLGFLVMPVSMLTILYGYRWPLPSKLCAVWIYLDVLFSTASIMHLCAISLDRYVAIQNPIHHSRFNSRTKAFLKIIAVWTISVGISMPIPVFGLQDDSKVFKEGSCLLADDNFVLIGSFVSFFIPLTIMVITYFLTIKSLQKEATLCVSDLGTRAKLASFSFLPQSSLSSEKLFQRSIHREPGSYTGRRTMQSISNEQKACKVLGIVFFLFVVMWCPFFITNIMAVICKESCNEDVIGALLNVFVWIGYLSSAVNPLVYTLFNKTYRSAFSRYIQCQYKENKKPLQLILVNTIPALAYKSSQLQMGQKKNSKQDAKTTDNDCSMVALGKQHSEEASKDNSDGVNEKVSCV
Put plainly: Radioligand binding, 5-HT2a ([3H]Ketanserin). The note with it: read-out: Binding affinity (Inhibition rate % at 10 μM) 5HT2a. The protocol:
as §1

The target in data set [10] is T6, hD4.2 receptor (Homo sapiens, UniProt P21917, DEL265-296).
T6 construct: purchased BioSignal Packard Inc., Montreal, Canada
T6 sequence (P21917 with tags, fused parts or gaps DEL265-296): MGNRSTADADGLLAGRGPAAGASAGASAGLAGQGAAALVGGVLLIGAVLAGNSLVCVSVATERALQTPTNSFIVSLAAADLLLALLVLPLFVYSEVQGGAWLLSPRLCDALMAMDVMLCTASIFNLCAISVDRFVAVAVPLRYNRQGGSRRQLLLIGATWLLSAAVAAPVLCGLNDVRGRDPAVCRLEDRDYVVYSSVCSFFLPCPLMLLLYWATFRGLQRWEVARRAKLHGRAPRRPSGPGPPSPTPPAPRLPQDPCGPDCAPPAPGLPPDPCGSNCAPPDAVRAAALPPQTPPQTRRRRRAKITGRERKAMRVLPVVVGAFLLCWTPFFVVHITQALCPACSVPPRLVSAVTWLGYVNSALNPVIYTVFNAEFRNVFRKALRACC
Put plainly: Radioligand binding, dopamine D4 ([3H]YM-09151-2). The note with it: read-out: Binding affinity (Inhibition rate % at 10 μM) D4.

For data set [11] the following is noted: literature; cited from earlier work.
The target of data set [12] is T7, 5-HT2c (Homo sapiens, UniProt P28335).
T7 construct: purchased Euroscreen/BioSignal Packard Inc
T7 sequence (P28335 33-458): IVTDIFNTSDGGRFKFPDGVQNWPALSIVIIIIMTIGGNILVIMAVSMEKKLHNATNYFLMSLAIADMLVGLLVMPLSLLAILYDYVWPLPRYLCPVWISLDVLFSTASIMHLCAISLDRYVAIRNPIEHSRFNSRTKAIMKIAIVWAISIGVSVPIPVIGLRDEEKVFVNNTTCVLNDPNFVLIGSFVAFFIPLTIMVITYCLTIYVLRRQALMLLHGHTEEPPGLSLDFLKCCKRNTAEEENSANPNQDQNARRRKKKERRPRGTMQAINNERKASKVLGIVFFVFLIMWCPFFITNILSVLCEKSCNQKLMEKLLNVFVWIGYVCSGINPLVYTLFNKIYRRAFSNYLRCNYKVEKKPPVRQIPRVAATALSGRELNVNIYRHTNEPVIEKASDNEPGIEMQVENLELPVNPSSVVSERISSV
The data set can be described thus: Radioligand binding, 5-HT2c ([3H]Mesulergine). To be noted: read-out: Binding affinity (Inhibition rate % at 10 μM) 5HT2c. The protocol:
as §1

In data set [13] the test system is rats. To be noted: literature; cited from earlier work.
Data set [14] concerns rats. To be noted: literature; cited from earlier work. The source holds these as a separate data set.

Where only a bound is given, the exact number is not on record here.

T1 sequence (P35462 whole entry): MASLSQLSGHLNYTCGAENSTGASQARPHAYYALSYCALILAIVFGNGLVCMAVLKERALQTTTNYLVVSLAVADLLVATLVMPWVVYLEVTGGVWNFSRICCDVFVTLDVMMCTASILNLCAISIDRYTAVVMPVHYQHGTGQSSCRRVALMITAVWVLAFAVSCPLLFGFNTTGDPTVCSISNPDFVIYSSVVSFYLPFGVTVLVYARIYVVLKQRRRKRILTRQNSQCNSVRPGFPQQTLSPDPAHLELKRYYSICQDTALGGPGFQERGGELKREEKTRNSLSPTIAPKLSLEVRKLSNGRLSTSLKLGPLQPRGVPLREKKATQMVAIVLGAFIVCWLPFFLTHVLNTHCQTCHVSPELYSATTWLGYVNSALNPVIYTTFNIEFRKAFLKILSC
T4 sequence (P34969 whole entry): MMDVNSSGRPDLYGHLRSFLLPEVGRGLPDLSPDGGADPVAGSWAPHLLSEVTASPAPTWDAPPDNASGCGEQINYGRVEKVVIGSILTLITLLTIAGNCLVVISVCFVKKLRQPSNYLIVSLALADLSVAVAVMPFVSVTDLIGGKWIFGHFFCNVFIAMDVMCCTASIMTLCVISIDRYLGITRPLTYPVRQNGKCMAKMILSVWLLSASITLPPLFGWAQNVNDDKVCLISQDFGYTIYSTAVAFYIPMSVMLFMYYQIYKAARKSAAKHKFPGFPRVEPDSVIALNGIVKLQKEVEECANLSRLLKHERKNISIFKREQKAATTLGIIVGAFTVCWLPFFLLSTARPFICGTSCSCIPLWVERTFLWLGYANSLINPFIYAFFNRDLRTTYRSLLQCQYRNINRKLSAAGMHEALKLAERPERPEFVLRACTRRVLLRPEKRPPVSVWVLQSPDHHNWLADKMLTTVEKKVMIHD

For `COc1ccc(NS(=O)(=O)c2sc3ccc(Cl)cc3c2C)cc1N1CCNCC1` [SB-271046, reference compound], the inhibition at 10 µM was determined as 66.2% in data set [1]; 49.7% in data set [3]; 17.3% in [4]; 84.2% in [5]; 60.1% in data set [9]; 14.2% in data set [10]. In addition, the inhibition at 10 µM in data set [12] was determined as 64.3%. Further, the extracellular glutamate levels result in data set [2] was “increased extracellular glutamate levels in frontal cortex and dorsal hippocampus by several fold”. Besides, in data set [6], the “retention of a previously learned task” value is reported as “significant improvement in retention of a previously learned task”. Further, in data set [7], the anticonvulsant activity result was “possess anticonvulsant activity”. In [8], the “Binding affinity (Inhibition rate % at 10 μM) 5HT7” value turned out to be 34.9%. In data set [11], the oral bioavailability was above 80%.

On to `CNc1cc(NS(=O)(=O)c2ccc(N)cc2)nc(NC)n1` [Ro 04-6790], for which the food intake entry in data set [13] was “decreased food intake”. The anticonvulsant activity result in data set [7] is given as “possess anticonvulsant activity”. Besides, the “behavior of yawning, stretching, and chewing” value in data set [14] is listed as “capable of inducing this same effect”.

For orientation: inhibition means the relative decrease from the control value, in per cent.
